Activity calls are given as the source filed them. The calls are words filed in the database; no cut-off is given here.
Legend:
[1] = target: NACHT, LRR and PYD domains-containing protein 3 (Mus musculus) (UniProt Q8R4B8); assay: Binding affinity to NLRP3 in mouse J774.A1 cells assessed as reduction in NLRP3 degradation incubated for 1 hrs at 48 to 81 degreeC by CETSA based Western blot analysis; format: cell-based
[2] = target: NACHT, LRR and PYD domains-containing protein 3 (Mus musculus) (UniProt Q8R4B8); assay: Inhibition of NLRP3 inflammasome activation in C57 mouse BMDM cells assessed as reduction in caspase-1 activation at 5 uM preincubated with LPS for 3 hrs followed by compound addition for 30 mins prior to nigericin addition and measured after 30 mins by Western blot analysis; format: cell-based; conditions: time 1.0 hrs
[3] = target: NACHT, LRR and PYD domains-containing protein 3 (Mus musculus) (UniProt Q8R4B8); assay: Inhibition of NLRP3 inflammasome activation in C57 mouse BMDM cells assessed as reduction in caspase-1 maturation at 5 uM preincubated with LPS for 3 hrs followed by compound addition for 30 mins prior to ATP addition and measured after 30 mins by Western blot analysis; format: cell-based; conditions: time 1.0 hrs
[4] = target: NLR family CARD domain-containing protein 4 (Mus musculus) (UniProt Q3UP24); assay: Inhibition of NLRC4 inflammasome activation in C57 mouse BMDM cells assessed as reduction in IL-1beta secretion at 5 uM preincubated with LPS for 3 hrs followed by Salmonella typhimurium stimulation for 2 hrs by Western blot analysis; format: cell-based
[5] = target: T1, Interferon-inducible protein AIM2 (Mus musculus) (UniProt Q91VJ1); assay: Inhibition of AIM2 inflammasome activation in C57 mouse BMDM cells assessed as reduction in caspase-1 maturation at 5 uM preincubated with LPS for 3 hrs followed by poly(dA:dT) stimulation for 4 hrs by Western blot analysis; format: cell-based
T1 sequence (whole entry): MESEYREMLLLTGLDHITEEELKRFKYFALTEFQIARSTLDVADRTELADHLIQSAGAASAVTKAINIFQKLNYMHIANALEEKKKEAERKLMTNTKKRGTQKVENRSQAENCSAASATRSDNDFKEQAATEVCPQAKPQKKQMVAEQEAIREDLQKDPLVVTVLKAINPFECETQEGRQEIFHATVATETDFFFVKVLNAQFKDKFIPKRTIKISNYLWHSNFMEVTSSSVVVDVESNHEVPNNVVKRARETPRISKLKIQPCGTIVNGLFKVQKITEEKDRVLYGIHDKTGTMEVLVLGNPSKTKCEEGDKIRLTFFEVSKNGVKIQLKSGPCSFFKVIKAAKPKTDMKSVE

[6] = test system: Mus musculus; assay: Anti-inflammatory activity in LPS-induced C57 sepsis mouse model assessed as reduction in inflammatory infiltration in liver at 10 to 30 mg/kg, ip preadministered with compound for 30 mins followed by LPS stimulation and measured after 6 hrs by H&E staining based analysis; format: functional, organism-based; conditions: dose 10-30 mg/kg, time 6.5 hrs
[7] = target: T2, NACHT, LRR and PYD domains-containing protein 3 (Homo sapiens, UniProt Q96P20); assay: Inhibition of NLRP3 inflammasome activation in […]-differentiated human THP-1 cells assessed as effect on potassium efflux at 2.5 to 10 uM preincubated with LPS for 3 hrs followed by compound addition for 30 mins prior to nigericin addition and measured after 30 mins by fluorescence based analysis; format: cell-based; conditions: dose 2.5-10 µM, time 1.0 hrs
[8] = target: NACHT, LRR and PYD domains-containing protein 3 (Mus musculus) (UniProt Q8R4B8); assay: (§1) Inhibition of NLRP3 inflammasome activation in LPS/Nigericin induced C57 mouse BMDM cells assessed as reduction in pro-IL-1beta expression in cell supernatant at 2.5 to 10 uM preincubated with LPS for 3 hrs followed by compound addition for 30 mins prior to nigericin addition and measured after 30 mins by Western blot analysis; format: cell-based; conditions: dose 2.5-10 µM, time 1.0 hrs
[9] = target: NACHT, LRR and PYD domains-containing protein 3 (Mus musculus) (UniProt Q8R4B8); assay: Inhibition of NLRP3 inflammasome assembly in C57 mouse BMDM cells assessed as reduction in ASC monomer at 2.5 to 10 uM preincubated with LPS for 3 hrs followed by compound addition for 30 mins prior to nigericin addition and measured after 30 mins by blotting analysis; format: cell-based; conditions: dose 2.5-10 µM, time 1.0 hrs
[10] = target: T1, Interferon-inducible protein AIM2 (Mus musculus); assay: Inhibition of AIM2 inflammasome activation in C57 mouse BMDM cells assessed as reduction in IL-1beta secretion at 5 uM preincubated with LPS for 3 hrs followed by poly(dA:dT) stimulation for 4 hrs by Western blot analysis; format: cell-based
[11] = test system: L02; assay: Cytotoxicity against human L02 cells assessed as reduction in cell viability upto 50 uM incubated for 24 hrs by CCK8 assay; format: toxicity, cell-based; conditions: l02, 24 h
[12] = target: NACHT, LRR and PYD domains-containing protein 3 (Mus musculus) (UniProt Q8R4B8); assay: as §1, with “intracellular NLRP3” for “pro-IL-1beta”; format: cell-based; conditions: dose 2.5-10 µM, time 1.0 hrs
[13] = test system: HEK-293T; assay: Cytotoxicity against HEK293T cells assessed as reduction in cell viability upto 50 uM incubated for 24 hrs by CCK8 assay; format: toxicity, cell-based; conditions: human
[14] = target: T2, NACHT, LRR and PYD domains-containing protein 3; assay: Binding affinity to CM5 chip immobilized NLRP3 (unknown origin) assessed as dissociation constant by SPR analysis
[15] = target: T2, NACHT, LRR and PYD domains-containing protein 3; assay: Inhibition of NLRP3 inflammasome activation in […]-differentiated human THP-1 cells assessed as effect on chloride efflux at 2.5 to 10 uM preincubated with LPS for 3 hrs followed by compound addition for 30 mins prior to nigericin addition and measured after 30 mins by fluorescence based analysis; format: cell-based; conditions: dose 2.5-10 µM, time 1.0 hrs
[16] = Stability in human liver microsomes assessed as half-life at 1.5 uM measured upto 45 mins in presence of NADPH by LC-MS/MS analysis; format: ADME, Microsome
[17] = test system: Mus musculus; assay: Anti-inflammatory activity in LPS-induced C57 sepsis mouse model assessed as reduction in serum IL-1beta level at 10 to 30 mg/kg, ip preadministered with compound for 30 mins followed by LPS stimulation and measured after 6 hrs by ELISA; format: functional, organism-based; conditions: dose 10-30 mg/kg, time 6.5 hrs
[18] = target: NACHT, LRR and PYD domains-containing protein 3 (Mus musculus) (UniProt Q8R4B8); assay: Inhibition of NLRP3 inflammasome assembly in C57 mouse BMDM cells assessed as reduction in higher order complex cross-linking at 2.5 to 10 uM preincubated with LPS for 3 hrs followed by compound addition for 30 mins prior to nigericin addition and measured after 30 mins by ASC oligomerization based blotting analysis; format: cell-based; conditions: dose 2.5-10 µM, time 1.0 hrs
[19] = test system: Mus musculus; assay: Anti-inflammatory activity in MSU-induced C57 mouse model of gouty arthritis assessed as reduction in AUC of foot swelling at 30 mg/kg, ip preadministered with compound for 3 days followed by MSU injection and measured after 24 hrs; format: functional, organism-based; conditions: time 4.0 day
[20] = target: NACHT, LRR and PYD domains-containing protein 3 (Mus musculus) (UniProt Q8R4B8); assay: Inhibition of NLRP3 inflammasome assembly in C57 mouse BMDM cells assessed as effect on NEK7 binding at 2.5 to 10 uM preincubated with LPS for 3 hrs followed by compound addition for 30 mins prior to nigericin addition and measured after 30 mins by immunoprecipitation; format: cell-based; conditions: dose 2.5-10 µM, time 1.0 hrs

T2 sequence (Q96P20 whole entry, the tested form may be a part): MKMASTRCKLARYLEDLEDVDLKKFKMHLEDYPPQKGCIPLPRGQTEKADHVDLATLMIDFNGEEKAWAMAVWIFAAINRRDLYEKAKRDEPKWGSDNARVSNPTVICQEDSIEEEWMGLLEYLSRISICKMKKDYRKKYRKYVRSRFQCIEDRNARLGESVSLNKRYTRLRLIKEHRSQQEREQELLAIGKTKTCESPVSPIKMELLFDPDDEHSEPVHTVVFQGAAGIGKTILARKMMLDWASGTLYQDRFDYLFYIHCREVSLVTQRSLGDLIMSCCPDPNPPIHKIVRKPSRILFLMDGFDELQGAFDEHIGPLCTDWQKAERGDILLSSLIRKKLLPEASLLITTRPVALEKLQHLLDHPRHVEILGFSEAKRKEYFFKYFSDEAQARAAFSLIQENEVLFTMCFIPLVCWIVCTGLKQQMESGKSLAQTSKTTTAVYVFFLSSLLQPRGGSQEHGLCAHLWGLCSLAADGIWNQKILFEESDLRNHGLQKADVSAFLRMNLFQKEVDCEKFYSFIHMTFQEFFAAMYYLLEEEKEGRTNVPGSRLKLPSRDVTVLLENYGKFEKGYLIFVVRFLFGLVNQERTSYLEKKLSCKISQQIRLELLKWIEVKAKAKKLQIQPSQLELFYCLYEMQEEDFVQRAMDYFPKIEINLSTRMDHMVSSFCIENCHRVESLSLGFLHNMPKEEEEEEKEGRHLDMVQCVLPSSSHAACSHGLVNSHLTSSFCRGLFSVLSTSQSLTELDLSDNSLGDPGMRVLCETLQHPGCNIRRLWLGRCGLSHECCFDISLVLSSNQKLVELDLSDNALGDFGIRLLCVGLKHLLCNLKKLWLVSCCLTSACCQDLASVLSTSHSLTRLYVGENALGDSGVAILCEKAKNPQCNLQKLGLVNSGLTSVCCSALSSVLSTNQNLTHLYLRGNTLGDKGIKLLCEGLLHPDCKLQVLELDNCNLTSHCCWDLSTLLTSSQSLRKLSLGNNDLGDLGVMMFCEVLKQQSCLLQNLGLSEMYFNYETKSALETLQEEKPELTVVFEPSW
Sequence of NACHT, LRR and PYD domains-containing protein 3 (Mus musculus) (Q8R4B8 whole entry, the tested form may be a part): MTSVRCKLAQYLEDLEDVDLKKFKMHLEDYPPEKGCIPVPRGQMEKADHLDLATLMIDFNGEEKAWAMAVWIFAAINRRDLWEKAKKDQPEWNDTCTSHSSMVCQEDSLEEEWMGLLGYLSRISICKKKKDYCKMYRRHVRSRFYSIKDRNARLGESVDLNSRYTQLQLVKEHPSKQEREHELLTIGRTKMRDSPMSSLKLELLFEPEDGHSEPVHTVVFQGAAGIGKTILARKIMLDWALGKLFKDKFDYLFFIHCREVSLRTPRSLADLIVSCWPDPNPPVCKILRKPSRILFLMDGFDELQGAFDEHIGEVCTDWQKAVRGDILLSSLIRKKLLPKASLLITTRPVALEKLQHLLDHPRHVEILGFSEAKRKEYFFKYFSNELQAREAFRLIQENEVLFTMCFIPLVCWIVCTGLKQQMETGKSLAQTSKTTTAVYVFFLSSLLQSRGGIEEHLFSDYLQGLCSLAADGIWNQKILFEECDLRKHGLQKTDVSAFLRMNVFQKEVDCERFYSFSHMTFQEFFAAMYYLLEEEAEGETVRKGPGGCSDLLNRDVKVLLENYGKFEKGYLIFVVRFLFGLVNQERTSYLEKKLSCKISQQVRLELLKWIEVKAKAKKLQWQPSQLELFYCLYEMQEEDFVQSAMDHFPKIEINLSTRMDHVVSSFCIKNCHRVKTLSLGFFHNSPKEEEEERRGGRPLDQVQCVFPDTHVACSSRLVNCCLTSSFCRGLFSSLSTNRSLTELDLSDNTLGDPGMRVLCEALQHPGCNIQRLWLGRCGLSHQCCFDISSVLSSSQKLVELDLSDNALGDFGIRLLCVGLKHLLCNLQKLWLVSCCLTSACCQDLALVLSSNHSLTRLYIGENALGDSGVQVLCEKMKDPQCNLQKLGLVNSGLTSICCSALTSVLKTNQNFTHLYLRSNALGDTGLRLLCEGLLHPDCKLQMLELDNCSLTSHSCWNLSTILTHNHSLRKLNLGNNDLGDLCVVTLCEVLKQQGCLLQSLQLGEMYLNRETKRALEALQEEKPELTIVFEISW
Sequence of NLR family CARD domain-containing protein 4 (Mus musculus) (Q3UP24 whole entry, the tested form may be a part): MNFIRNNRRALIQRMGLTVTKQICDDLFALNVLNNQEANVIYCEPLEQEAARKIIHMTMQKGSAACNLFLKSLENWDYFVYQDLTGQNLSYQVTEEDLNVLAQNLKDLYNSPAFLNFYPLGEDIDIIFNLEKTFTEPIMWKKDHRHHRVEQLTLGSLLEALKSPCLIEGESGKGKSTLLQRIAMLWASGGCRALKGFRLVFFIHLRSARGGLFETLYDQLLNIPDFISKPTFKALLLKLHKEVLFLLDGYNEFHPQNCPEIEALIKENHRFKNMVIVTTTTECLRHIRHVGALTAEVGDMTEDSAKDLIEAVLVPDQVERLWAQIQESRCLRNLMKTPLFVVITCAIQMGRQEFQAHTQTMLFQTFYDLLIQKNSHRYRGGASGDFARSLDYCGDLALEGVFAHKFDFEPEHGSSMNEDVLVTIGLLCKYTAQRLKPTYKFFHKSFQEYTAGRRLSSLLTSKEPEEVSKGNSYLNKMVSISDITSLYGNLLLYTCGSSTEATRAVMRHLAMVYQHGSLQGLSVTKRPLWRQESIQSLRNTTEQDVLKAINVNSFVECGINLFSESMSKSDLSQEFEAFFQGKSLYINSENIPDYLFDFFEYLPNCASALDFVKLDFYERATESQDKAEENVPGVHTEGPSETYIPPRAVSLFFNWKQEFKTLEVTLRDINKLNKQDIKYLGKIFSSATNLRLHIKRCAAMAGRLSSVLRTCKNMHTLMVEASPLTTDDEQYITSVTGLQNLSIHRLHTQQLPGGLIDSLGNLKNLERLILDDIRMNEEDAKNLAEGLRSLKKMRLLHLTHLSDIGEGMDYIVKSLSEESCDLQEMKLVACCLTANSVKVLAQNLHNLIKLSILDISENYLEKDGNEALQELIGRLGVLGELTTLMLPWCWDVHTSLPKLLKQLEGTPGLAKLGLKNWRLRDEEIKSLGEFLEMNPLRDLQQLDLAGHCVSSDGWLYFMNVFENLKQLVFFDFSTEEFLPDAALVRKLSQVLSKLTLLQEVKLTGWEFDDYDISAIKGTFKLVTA

In the case of COc1ccc(N2C(=O)/C(=C\c3ccccc3C(F)(F)F)SC2=S)cc1, the Activity [1] is reported as “Active”, the inhibition [2] is reported as “Active” and the inhibition [3] is reported as “Active”. The inhibition [4] was “inactive”, the inhibition [5] was “inactive” and the Activity [6] was “Active”. For the same compound, the inhibition [7] was “inactive”, the inhibition [8] was “inactive” and the inhibition [9] was “Active”. For the same compound, the inhibition [10] was “inactive”, the Activity [11] was “Non-Toxic” and the inhibition [12] was “inactive”. For the same compound, the Activity [13] was “Non-Toxic”, the Kd [14] was 7.2 µM and the inhibition [15] was “inactive”. For the same compound, the half-life at 1.5 µM [16] was 2.07 h, the Activity [17] was “Active” and the inhibition [18] was “Active”. The Activity [19] was “Active” and the inhibition [20] was “Active”.
